Laboratory results: paper PMC5897774, “Mitotic spindle association of TACC3 requires Aurora‐A‐dependent stabilization of a cryptic α‐helix” (The EMBO Journal, 2018)

Biological target: T1, Aurora‐A R151A (Homo sapiens, UniProt O14965, C290A/C393A/R151A)
T1 construct: pET30TEV Aurora‐A 122–403 C290A, C393A were produced in a similar manner; made in house
T1 sequence (O14965 122-403 R151A/C290A/C393A): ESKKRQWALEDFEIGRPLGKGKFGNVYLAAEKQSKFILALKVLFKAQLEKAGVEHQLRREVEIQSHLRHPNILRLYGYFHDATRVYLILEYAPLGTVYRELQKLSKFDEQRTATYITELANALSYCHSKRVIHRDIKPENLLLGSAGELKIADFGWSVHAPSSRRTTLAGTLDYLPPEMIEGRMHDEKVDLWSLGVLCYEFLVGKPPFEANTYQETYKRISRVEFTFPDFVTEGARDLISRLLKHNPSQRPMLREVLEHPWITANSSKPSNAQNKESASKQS
Test: FP binding assay, Aurora‐A R151A
Details: fluorescence polarization, Aurora‐A R151A relative to WT Aurora‐A
Experimental: The contributions of the site 1 residues to the interaction were quantified using fluorescence polarization spectroscopy (FP) with a set of fluorescein (FAM)‐labelled peptides.
Binding assays were performed in triplicate. FP signal was fit to a one‐site total binding model in Prism 6 (GraphPad). Results are reported as K d ± SE.

reduced affinity: 40 fold
SMILES: CC(C)C[C@H](NC(=O)[C@@H](NC(=O)[C@H](CCC(=O)O)NC(=O)[C@H](C)NC(=O)[C@@H]1CCCN1C(=O)[C@H](CC(=O)O)NC(=O)[C@H](CCCNC(=N)N)NC(=O)[C@H](Cc1ccccc1)NC(=O)[C@H](CO)NC(=O)[C@H](CCC(=O)O)NC(=O)[C@H](CCC(=O)O)NC(=O)c1ccc2c(c1)C(=O)OC21c2ccc(O)cc2Oc2cc(O)ccc21)C(C)C)C(=O)NCC(=O)N[C@H](C(=O)NCC(=O)N[C@@H](C)C(=O)O)[C@@H](C)O [FAM‐TACC3 522–536]
